Ten compounds from PubChem BioAssay (NCI) can be followed below.

Values joined by “and” are separate entries in the source; they are usually repeats but may differ in a detail not shown here. Equal values may be shown once.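 1) Cells in 96-well plates. 2) Compound, 48 h, 5 concentrations. 3) Linear interpolation between surrounding doses. 4) Unreached endpoint = highest concentration. Abbreviation: GI50, concentration required for 50% inhibition of growth. TGI marks complete inhibition of growth.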

Some test systems named below: KM12 colon; CCRF-CEM leukemia; MALME-3M melanoma; SK-MEL-5 melanoma; HCT-15 colon; CAKI-1 renal; U251 CNS; PC-3 prostate; SK-MEL-2 melanoma; COLO 205 colon.
Common to all, as to assay: NCI anticancer screen, dose series, 48 h

For `CC[C@@]1(O)CC(OC2CC(N3CCOCC3)C(O)C(C)O2)c2c(O)c3c(c(O)c2[C@H]1O)C(=O)c1cccc(O)c1C3=O` (stereo partly specified), the TGI with KM12 colon is 3.59 µM and 1.68 µM; with MALME-3M melanoma, 0.258 µM and 0.339 µM; with SK-MEL-5 melanoma, 0.451 µM and 0.181 µM; in the assay on HCT-15 colon, 1.44 µM and 3.18 µM; in the assay on CAKI-1 renal, 0.318 µM and 0.243 µM; in the assay on U251 CNS it was 1.73 µM and 0.348 µM. For the same compound, the TGI in the assay on PC-3 prostate is 0.811 µM; in the assay on SK-MEL-2 melanoma, 0.959 µM and 1.5 µM; in the assay on COLO 205 colon it was 0.897 µM and 2.14 µM. Also, the GI50 in the assay on CCRF-CEM leukemia is 0.000479 µM and < 0.0102 µM; in the assay with MALME-3M melanoma it was 0.034 µM; in the assay with SK-MEL-5 melanoma, 0.0175 µM; with HCT-15 colon, 0.0358 µM; in the assay with U251 CNS, 0.0287 µM; in the assay with COLO 205 colon it was 0.0433 µM.
Take `N#CC1(CCCI)CCCC1`: the TGI is more than 100 µM in the assay with KM12 colon; more than 100 µM in the assay on CCRF-CEM leukemia; 80.6 µM in the assay on MALME-3M melanoma; 25.5 µM in the assay with SK-MEL-5 melanoma; more than 100 µM in the assay with HCT-15 colon; 26.3 µM in the assay with U251 CNS. Also, the TGI was 81.8 µM with SK-MEL-2 melanoma and more than 100 µM in the assay with COLO 205 colon.
With `C[C@]12CC[C@H]3[C@@H](CC=C4C[C@@H](O)CC[C@@]43C)[C@@H]1C/C(=C\c1ccncc1)[C@@H]2O`, the TGI in the assay on KM12 colon was found to be 31.2 µM; with CCRF-CEM leukemia it was 50.8 µM; in the assay on MALME-3M melanoma, 62.1 µM; with SK-MEL-5 melanoma, 21.1 µM; in the assay on HCT-15 colon, 58.9 µM; in the assay with CAKI-1 renal, 57.4 µM. Further, the TGI was determined as 33.9 µM in the assay with U251 CNS, 43 µM with PC-3 prostate, 45.9 µM in the assay with SK-MEL-2 melanoma and 24.9 µM in the assay with COLO 205 colon.
For `CC(=O)OC(C(=O)O)C(OC(C)=O)C(OC(C)=O)C(OC(C)=O)C(=O)O` (stereo unspecified), the TGI in the assay with KM12 colon, with CCRF-CEM leukemia, with MALME-3M melanoma, with SK-MEL-5 melanoma, with HCT-15 colon and in the assay with CAKI-1 renal was more than 100 µM in each case. Besides, the TGI with U251 CNS, in the assay with PC-3 prostate, in the assay with SK-MEL-2 melanoma and with COLO 205 colon was more than 100 µM in each case.
Consider `N#Cc1c(-c2ccc([N+](=O)[O-])cc2)c2c([nH]c1=O)-c1ccccc1CCC2`, for which the TGI in the assay on KM12 colon, with MALME-3M melanoma, in the assay with SK-MEL-5 melanoma, in the assay on HCT-15 colon, in the assay on CAKI-1 renal and with U251 CNS was more than 100 µM in each case. Further, the TGI in the assay with PC-3 prostate, with SK-MEL-2 melanoma and in the assay on COLO 205 colon was more than 100 µM in each case.
Consider `NC1CCN(c2nc3ccccc3c3c2CCCC3)CC1`, for which the TGI came to 15.2 µM in the assay on KM12 colon; 15.2 µM in the assay on CCRF-CEM leukemia; 19.8 µM in the assay on MALME-3M melanoma; 7.01 µM with SK-MEL-5 melanoma; 17.7 µM in the assay on HCT-15 colon; 19.1 µM in the assay with CAKI-1 renal. The TGI turned out to be 14.8 µM in the assay on U251 CNS, 20.4 µM in the assay with PC-3 prostate, 10.5 µM in the assay with SK-MEL-2 melanoma and 3.22 µM in the assay with COLO 205 colon.
Consider `Cc1c(-c2ccccc2)c(C#N)c2nnn(-c3ccc(Cl)cc3)c(=O)n12`, for which the TGI was more than 100 µM in the assay with KM12 colon; more than 100 µM with CCRF-CEM leukemia; more than 100 µM with MALME-3M melanoma; 16 µM in the assay on SK-MEL-5 melanoma; more than 100 µM in the assay on HCT-15 colon; more than 100 µM with CAKI-1 renal. For the same compound, the TGI is 27.3 µM in the assay with U251 CNS, 50.9 µM with PC-3 prostate, more than 100 µM in the assay on SK-MEL-2 melanoma and 42.3 µM in the assay on COLO 205 colon.
Regarding `CC(C)CNC1=NCC(C)S1` (stereo unspecified), the TGI with KM12 colon, in the assay with CCRF-CEM leukemia, in the assay with MALME-3M melanoma, with SK-MEL-5 melanoma, with HCT-15 colon and with CAKI-1 renal was more than 100 µM throughout. Besides, the TGI in the assay with U251 CNS, with PC-3 prostate, with SK-MEL-2 melanoma and in the assay with COLO 205 colon was more than 100 µM in each case.
With `CC(C)CCN(CCC(C)C)CC(=O)Nc1ccc(S(=O)(=O)c2ccc(NC(=O)CN(CCC(C)C)CCC(C)C)cc2)cc1`, the GI50 with KM12 colon was 1.62 µM; in the assay on CCRF-CEM leukemia, 1.06 µM; in the assay on MALME-3M melanoma it was 1.57 µM; in the assay on SK-MEL-5 melanoma, 1.53 µM; with HCT-15 colon, 1.29 µM; with PC-3 prostate, 2.01 µM. Moreover, the GI50 in the assay on SK-MEL-2 melanoma was 2.11 µM. Further, the TGI in the assay on KM12 colon was 3.25 µM; with CCRF-CEM leukemia, 3.87 µM; in the assay on MALME-3M melanoma it was 3.51 µM; in the assay with SK-MEL-5 melanoma, 3.05 µM; in the assay with HCT-15 colon, 3.89 µM; in the assay with PC-3 prostate, 5.89 µM. Besides, the TGI with SK-MEL-2 melanoma turned out to be 6.14 µM.
As for `C=C(CN(C)C)C(=O)c1ccccc1OC`, the TGI stood at 63 µM with KM12 colon; 14.5 µM in the assay on CCRF-CEM leukemia; 16.5 µM in the assay with MALME-3M melanoma; 31.1 µM with SK-MEL-5 melanoma; 33.3 µM with HCT-15 colon; 26.1 µM in the assay with CAKI-1 renal. The TGI in the assay with U251 CNS was 66.3 µM; with PC-3 prostate, 31.9 µM; with SK-MEL-2 melanoma, 30 µM; in the assay on COLO 205 colon it was 11 µM.
